Results reported in US8026257B2 (Bristol-Myers Squibb Company, priority 2007, dated 2011).
pIC50: −log10 of the molar value. Where a name gives a salt, the structure may show the parent alone.

Key:
[1] = target: hSERT (Homo sapiens, UniProt P31645); experiment: SERT radioligand binding assay ([125I]RTI-55, HEK-hSERT membranes); details: HEK-293 hSERT membranes, 260 pM [125I]RTI-55, 1 hour at room temperature; read-out: SERT IC50
How it was run: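 IC50 values derive from four-parameter fits of triplicate percent-inhibition curves, with DMSO as 0% and fluoxetine as 100%. Binding used [125I]RTI-55 at its Kd (520 pM 2× solution) and HEK-hSERT membranes (15 ug/ml 2×) in Tris/NaCl/KCl, pH 7.5, 1 hour, room temperature. Filter-bound radioactivity was counted.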

[2] = target: T1, NK-1 (Homo sapiens, UniProt P25103); experiment: NK1 radioligand binding assay ([125I]Substance P, U373 membranes); details: U373 cell membranes, 200 pM [125I]Substance P, 1 hour at room temperature
T1 construct: 30 ul/well of a 2×U373 membrane preparation
T1 sequence (P25103 whole entry): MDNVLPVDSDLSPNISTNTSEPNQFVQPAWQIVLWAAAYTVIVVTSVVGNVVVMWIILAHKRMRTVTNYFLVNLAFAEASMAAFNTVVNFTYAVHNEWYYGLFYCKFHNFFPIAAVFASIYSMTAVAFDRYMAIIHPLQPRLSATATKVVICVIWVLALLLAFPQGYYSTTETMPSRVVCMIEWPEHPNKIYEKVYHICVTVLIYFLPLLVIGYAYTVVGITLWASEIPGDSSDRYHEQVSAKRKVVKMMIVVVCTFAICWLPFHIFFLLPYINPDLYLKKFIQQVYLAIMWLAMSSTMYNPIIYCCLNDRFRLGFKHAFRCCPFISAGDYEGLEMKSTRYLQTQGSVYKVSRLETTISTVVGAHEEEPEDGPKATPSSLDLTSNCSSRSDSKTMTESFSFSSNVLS
How it was run: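 Displacement of Kd-level [125I]Substance P (400 pM 2× stock) from U373 membranes in pH 7.5 Tris-Cl/MgCl2 buffer with protease inhibitors, 1 h, room temperature. Filtration onto GF/B, then scintillation counting. Percent inhibition, referenced to DMSO and L-733,060 wells, fitted by four-parameter equation to give IC50; triplicate plates.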

Sequence of hSERT (P31645 whole entry): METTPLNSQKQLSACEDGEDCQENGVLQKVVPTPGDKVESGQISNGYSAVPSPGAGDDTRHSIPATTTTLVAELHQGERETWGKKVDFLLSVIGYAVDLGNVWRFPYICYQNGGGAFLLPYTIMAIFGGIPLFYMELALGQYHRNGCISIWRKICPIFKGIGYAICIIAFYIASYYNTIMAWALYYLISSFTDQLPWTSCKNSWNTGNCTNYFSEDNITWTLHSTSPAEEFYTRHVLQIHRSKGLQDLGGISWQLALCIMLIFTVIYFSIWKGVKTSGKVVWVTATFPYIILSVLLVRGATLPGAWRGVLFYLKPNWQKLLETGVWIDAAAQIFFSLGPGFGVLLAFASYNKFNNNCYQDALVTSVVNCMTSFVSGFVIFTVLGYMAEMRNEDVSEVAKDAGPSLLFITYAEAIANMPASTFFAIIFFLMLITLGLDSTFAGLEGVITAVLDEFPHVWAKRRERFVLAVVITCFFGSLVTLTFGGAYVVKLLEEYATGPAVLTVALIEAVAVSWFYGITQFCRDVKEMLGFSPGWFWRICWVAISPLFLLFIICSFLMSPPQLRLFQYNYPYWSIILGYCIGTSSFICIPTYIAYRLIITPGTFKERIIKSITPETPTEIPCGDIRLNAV

| SMILES | pIC50 [1] | pIC50 [2] |
| --- | --- | --- |
| COC(=O)C(OCC1(c2ccc(F)cc2)CCN(C)CC1)c1cc(Cl)cc2cn[nH]c12 (stereo not drawn) [Example 89, Methyl 2-(5-chloro-1H-indazol-7-yl)-2-((4-(4-fluorophenyl)-1-methylpiperidin-4-yl)methoxy)acetate trifluoroacetic acid salt] | 7.00 to 11.00 | < 6.52 |
| CN1CCC(COC(C(=O)O)c2cc(Cl)cc3cn[nH]c23)(c2ccc(F)cc2)CC1 (stereo not drawn) [Example 90, 2-(5-Chloro-1H-indazol-7-yl)-2-((4-(4-fluorophenyl)-1-methylpiperidin-4-yl)methoxy)acetic acid trifluoroacetic acid salt] | 7.00 to 11.00 | < 6.52 |
| CN1CCC(COC(C(=O)N(C)C)c2cc(Cl)cc3cn[nH]c23)(c2ccc(F)cc2)CC1 (stereo not drawn) [Example 91, 2-(5-Chloro-1H-indazol-7-yl)-2-((4-(4-fluorophenyl)-1-methylpiperidin-4-yl)methoxy)-N,N-dimethylacetamide trifluoroacetic acid salt] | 7.00 to 11.00 | < 6.52 |
| CN1CCC(COC(CO)c2cc(Cl)cc3cn[nH]c23)(c2ccc(F)cc2)CC1 (stereo not drawn) [Example 92, 2-(5-Chloro-1H-indazol-7-yl)-2-((4-(4-fluorophenyl)-1-methylpiperidin-4-yl)methoxy)ethanol trifluoroacetic acid salt] | 7.00 to 11.00 | 7.00 to 11.00 |
| COCC(OCC1(c2ccc(F)cc2)CCN(C)CC1)c1cc(Cl)cc2cn[nH]c12 (stereo not drawn) [Example 93, 5-Chloro-7-(1-((4-(4-fluorophenyl)-1-methylpiperidin-4-yl)methoxy)-2-methoxyethyl)-1H-indazole trifluoroacetic acid salt] | 7.00 to 11.00 | 7.00 to 11.00 |
| CN1CCC(COC(CF)c2cc(Cl)cc3cn[nH]c23)(c2ccc(F)cc2)CC1 (stereo not drawn) [Example 94, 5-Chloro-7-(2-fluoro-1-((4-(4-fluorophenyl)-1-methylpiperidin-4-yl)methoxy)ethyl)-1H-indazole] | 7.00 to 11.00 | 7.00 to 11.00 |
| CN1CCC(COC(C#N)c2cc(Cl)cc3cn[nH]c23)(c2ccc(F)cc2)CC1 (stereo not drawn) [Example 95, 2-(5-Chloro-1H-indazol-7-yl)-2-((4-(4-fluorophenyl)-1-methylpiperidin-4-yl)methoxy)acetonitrile] | 7.00 to 11.00 | 7.00 to 11.00 |
| CC(OCC1(c2ccc(F)cc2)CCN(C)CC1)c1cc(Cl)cc2[nH]c(=O)[nH]c12 (stereo not drawn) [Example 96, 6-Chloro-4-(1-((4-(4-fluorophenyl)-1-methylpiperidin-4-yl)methoxy)ethyl)-1H-benzo[d]imidazol-2(3H)-one trifluoroacetic acid salt] | 7.00 to 11.00 | 6.52 to 7.00 |
| CC(OCC1(c2ccc(F)cc2)CCN(C)CC1)c1cc(Cl)cc2[nH]c(=O)n(C)c12 (stereo not drawn) [Example 97, 5-Chloro-7-(1-((4-(4-fluorophenyl)-1-methylpiperidin-4-yl)methoxy)ethyl)-1-methyl-1H-benzo[d]imidazol-2(3H)-one trifluoroacetic acid salt] | 7.00 to 11.00 | 6.52 to 7.00 |
| CC(OCC1(c2ccc(F)cc2)CCN(C)CC1)c1cc(Cl)cc2c1[nH]c(=O)n2C (stereo not drawn) [Example 98, 6-Chloro-4-(1-((4-(4-fluorophenyl)-1-methylpiperidin-4-yl)methoxy)ethyl)-1-methyl-1H-benzo[d]imidazol-2(3H)-one trifluoroacetic acid salt] | 7.00 to 11.00 | 7.00 to 11.00 |
| C[C@@H](OCC1(c2ccc(F)cc2)CCNCC1)c1cc(Cl)cc2c(Cl)n[nH]c12 [Example 99, (R)-3,5-Dichloro-7-(1-((4-(4-fluorophenyl)piperidin-4-yl)methoxy)ethyl)-1H-indazole] | 7.00 to 11.00 | 7.00 to 11.00 |
| C[C@@H](OCC1(c2ccc(F)cc2)CCN(C)CC1)c1cc(Cl)cc2c(Cl)n[nH]c12 [Example 100, (R)-3,5-Dichloro-7-(1-((4-(4-fluorophenyl)-1-methylpiperidin-4-yl)methoxy)ethyl)-1H-indazole] | 7.00 to 11.00 | 7.00 to 11.00 |
| C[C@@H](OCC1(c2ccc(F)cc2)CCNCC1)c1cc(Br)cc2c(Br)n[nH]c12 [Example 101, (R)-3,5-Dibromo-7-(1-((4-(4-fluorophenyl)piperidin-4-yl)methoxy)ethyl)-1H-indazole] | 7.00 to 11.00 | 7.00 to 11.00 |
| C[C@@H](OCC1(c2ccc(F)cc2)CCN(C)CC1)c1cc(Br)cc2c(Br)n[nH]c12 [Example 102, (R)-3,5-Dibromo-7-(1-((4-(4-fluorophenyl)-1-methylpiperidin-4-yl)methoxy)ethyl)-1H-indazole] | 7.00 to 11.00 | 7.00 to 11.00 |
| Cc1n[nH]c2c([C@@H](C)OCC3(c4ccc(F)cc4)CCN(C)CC3)cc(Cl)cc12 [Example 103, (R)-5-Chloro-7-(1-((4-(4-fluorophenyl)-1-methylpiperidin-4-yl)methoxy)ethyl)-3-methyl-1H-indazole] | 7.00 to 11.00 | 7.00 to 11.00 |
| C[C@@H](OCC1(c2ccc(F)cc2)CCNCC1)c1cc(Cl)cc2cn(CC3CC3)nc12 [Example 104] | 7.00 to 11.00 | 7.00 to 11.00 |
| C[C@@H](OCC1(c2ccc(F)cc2)CCN(C)CC1)c1cc(Cl)cc2cn(CC3CC3)nc12 [Example 105, (R)-5-chloro-2-(cyclopropylmethyl)-7-(1-((4-(4-fluorophenyl)-1methylpiperidin-4-yl)methoxy)ethyl)-2H-indazole] | 7.00 to 11.00 | 7.00 to 11.00 |
| C[C@@H](OCC1(c2ccc(F)cc2)CCN(C)CC1)c1cc(Cl)cc2cnn(CC3CC3)c12 [Example 106, (R)-5-chloro-1-(cyclopropylmethyl)-7-(1-((4-(4-fluorophenyl)-1methylpiperidin-4-yl)methoxy)ethyl)-1H-indazole] | 7.00 to 11.00 | 7.00 to 11.00 |
| C[C@@H](OCC1(c2ccc(F)cc2)CCN(C)CC1)c1cc(Cl)cc2cn(CC#N)nc12 [Example 107, (R)-2-(5-chloro-7-(1-((4-(4-fluorophenyl)-1-methylpiperidine-4-yl)methoxy)ethyl)-2H-indazole-2-yl)acetonitrile] | 7.00 to 11.00 | 7.00 to 11.00 |
| C[C@@H](OCC1(c2ccc(F)cc2)CCN(C)CC1)c1cc(Cl)cc2cnn(CC#N)c12 [Example 108] | 7.00 to 11.00 | 7.00 to 11.00 |
| CN1CCC(CO[C@H](CF)c2cc(Cl)cc3c(Cl)n[nH]c23)(c2ccc(F)cc2)CC1 [Example 109, (S)-3,5-dichloro-7-(2-fluoro-1-((4-(4-fluorophenyl)-1-methylpiperidine-4-yl)methoxy)ethyl)-1H-indazole] | 7.00 to 11.00 | 7.00 to 11.00 |
| CN1CCC(COC(CC#N)c2cc(Cl)cc3cn[nH]c23)(c2ccc(F)cc2)CC1 (stereo not drawn) [Example 110, 3-(5-chloro-1H-indazol-7-yl)-3-((4-(4-fluorophenyl)-1-methylpiperidine-4-yl)methoxy)propanenitrile] | 7.00 to 11.00 | 7.00 to 11.00 |
| CN(C)CC(OCC1(c2ccc(F)cc2)CCNCC1)c1cc(Cl)cc2cn[nH]c12 (stereo not drawn) [Example 111, 2-(5-chloro-1H-indazol-7-yl)-2-((4-(4-fluorophenyl)piperidine-4-yl)methoxy)-N,N-dimethylethanamine] | 7.00 to 11.00 | < 6.52 |
| CN(C)CC(OCC1(c2ccc(F)cc2)CCN(C)CC1)c1cc(Cl)cc2cn[nH]c12 (stereo not drawn) [Example 112, 2-(5-chloro-1H-indazol-7-yl)-2-((4-(4-fluorophenyl)-1-methylpiperidine-4-yl)methoxy)-N,N-dimethylethanamine] | 6.52 to 7.00 | < 6.52 |
